Experimental findings from patent publication US20250346584A1, “NOVEL KAPPA OPIOID LIGANDS” (The Scripps Research Institute, priority 2012, published 2025) are described below.

Molecules are shown by their SMILES.

The target in this test is kappa opioid receptor (OPRK1) (Homo sapiens (Human), UniProt P41145). The test can be described thus: OPRK1 antagonist assay (b-arrestin-2-TEV / b-lactamase reporter cell line, EC80 U-50488 challenge). It counts as cell-based. As to conditions: read-out: IC50 nM (% inhib if other than 50%); antagonist mode vs EC80 U-50488; NA = not active at concentrations up to 10 μM.
Sequence of kappa opioid receptor (OPRK1) (P41145 whole entry): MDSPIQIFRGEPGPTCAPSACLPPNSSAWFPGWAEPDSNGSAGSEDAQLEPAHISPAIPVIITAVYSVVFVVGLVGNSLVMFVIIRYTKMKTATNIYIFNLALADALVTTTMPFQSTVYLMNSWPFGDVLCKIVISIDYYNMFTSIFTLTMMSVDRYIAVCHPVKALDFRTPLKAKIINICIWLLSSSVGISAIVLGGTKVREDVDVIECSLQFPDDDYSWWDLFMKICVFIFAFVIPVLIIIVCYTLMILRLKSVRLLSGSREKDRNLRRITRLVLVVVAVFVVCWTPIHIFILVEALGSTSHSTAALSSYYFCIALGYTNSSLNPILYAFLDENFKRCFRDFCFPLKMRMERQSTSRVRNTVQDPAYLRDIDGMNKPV
The term IC50 denotes the point on the concentration scale where inhibition reaches its midpoint. For the compound `Cc1noc(-c2cc3c(nc2N2CC[C@@H](NC4CCCCC4)[C@H](O)C2)CCC3)n1` [compound 207], the IC50 worked out at 276 nM.

With `Cc1ccc2nc(N3CCC(NCC(C)C)CC3)c(-c3nc(C4CC4)no3)cc2c1` [compound 354], the half-maximal inhibitory concentration (IC50) worked out at 4.2 nM. The value for `Cc1nc(-c2cc3cc(F)ccc3nc2N2CCC(NC3CCCC3)CC2)no1` [compound 468] was 175 nM. In the case of `COC(=O)c1cc2ccccc2nc1N1CC[C@@H](NC2CCCCC2)[C@H](O)C1` [compound 160] it was 209 nM; in that of `COC(=O)c1cc(Br)cnc1N1CCC(NC2CCCCC2CO)CC1` (centres unmarked) [compound 65], 2300 nM. `Cc1nc(-c2cc3cc(F)ccc3nc2N2CCC(NC3CCOCC3)CC2)no1` [compound 469]: the IC50 is 440 nM. On to `COC1CN(c2nc3ccccc3cc2C2=NC(C)CO2)CCC1NC1CCCCC1` (centres unmarked) [compound 259], for which the half-maximal inhibitory concentration (IC50) came to 372 nM. The value for `O=Cc1cc(Br)cnc1N1CC[C@@H](NC2CCCCC2)[C@H](O)C1` [compound 129] was 799 nM. On to `COC(=O)c1cccnc1N1CCC(NC2CCCCC2)C(CO)C1` (centres unmarked) [compound 149], for which the IC50 was found to be 5400 nM. Regarding `Cc1cnc(N2CC[C@@H](NC3CCCCC3)[C@H](O)C2)c(-c2ncco2)c1` [compound 169], the IC50 was determined as 2500 nM. The value for `Cc1ccc2nc(N3CCC(NC4CCCCC4)C(CO)C3)c(C(=O)OC(C)C)cc2c1` (centres unmarked) [compound 291] was 18 nM. In the case of `COC(=O)c1cc(I)cnc1N1CCC(NC2CCCCC2O)CC1` (centres unmarked) [compound 37] it was 142 nM; in that of `Cc1nc(-c2cc3ccc(F)cc3nc2N2CCC(N[C@H]3CCCC[C@@H]3O)CC2)no1` [compound 485], 673 nM; in that of `COC(=O)c1cc(Br)cnc1N1CCC(NC2CCCCCC2)CC1` [compound 20], 110 nM. The value for `CCc1noc(-c2cc(C)cnc2N2CC[C@@H](NC3CCCCC3)[C@H](O)C2)n1` [compound 168] was 7000 nM; that for `CO[C@H]1CN(c2nc3ccc(F)cc3cc2-c2nc(C)no2)CC[C@H]1NC1CCCCC1` [compound 296] was 10 nM; that for `CCc1noc(-c2cc3cc(C)ccc3nc2N2CCC(NC3CCCCCC3)C(OC)C2)n1` (centres unmarked) [compound 313] was 1.5 nM.

Take `COC(=O)c1cc(C)cnc1N1CCC(NC2CCCCC2)C(CO)C1` (centres unmarked) [compound 109]: the concentration for half-maximal inhibition (IC50) was 198 nM.

As to `Cc1noc(-c2cc3ccccc3nc2N2CCC(NC3CCCCC3)C(CO)C2)n1` (centres unmarked) [compound 186], the half-inhibitory concentration (IC50) was 5 nM. The value for `COC(=O)c1cc(Br)cnc1N1CCC(NC2CCCCC2)CC1C` (centres unmarked) [compound 64] was 901 nM; that for `Cc1ccc2nc(N3CCC(NC4CCCC(O)C4)CC3)c(-c3nc(C)no3)cc2c1` (centres unmarked) [compound 255] was 10 nM; that for `CC(=O)c1cc(Br)cnc1N1CCC(NC2CCCCC2)CC1` [compound 96] was 6700 nM. The value for `Cc1nc(-c2cc3cc(F)ccc3nc2N2CCC(N[C@H]3CCC[C@@H]3O)CC2)no1` [compound 474] was 1900 nM; that for `CO[C@H]1CN(c2nc3ccccc3cc2-c2cnc(C)cn2)CC[C@H]1NC1CCCCC1` [compound 470] was 40 nM. In the case of `CO[C@@H]1CN(c2nc3ccc(F)cc3cc2-c2nc(C)no2)CC[C@@H]1NC1CCCCC1` [compound 331] it was 27 nM. For the compound `Cc1ccc2nc(N3CCC(NC[C@H](C)O)CC3)c(-c3nc(C)no3)cc2c1` [compound 422], the IC50 is 106 nM. The value for `CCC1CN(c2ncc(C)cc2-c2nc(C)no2)CCC1NC1CCCCC1` (centres unmarked) [compound 183] was 280 nM; that for `CO[C@H]1CN(c2nnc(C)cc2C(=O)OC(C)C)CC[C@H]1NC1CCCCC1` [compound 411] was 10 nM; that for `Cc1nc(-c2cc3cc(F)ccc3nc2N2CCC(NC3CCCCC3)CC2)no1` [compound 467] was 431 nM. The value for `CC(=O)c1cc(C)cnc1N1CC[C@@H](NC2CCCCC2)[C@H](O)C1` [C60] was 14000 nM; that for `COC(=O)c1cc(Br)cnc1N1CCC(CNC2CCCCC2)CC1` [compound 31] was 3500 nM; that for `Cc1noc(-c2cc3ccccc3nc2N2CCC(NC3CCCCCC3)C(CO)C2)n1` (centres unmarked) [compound 200] was 14 nM. In the case of `COC1CN(c2ncc(C)cc2-c2nc(C)no2)CCC1NC1CCOCC1` (centres unmarked) [compound 320] it was 170 nM.

For `Cc1ccc2nc(N3CCC(NC4CCCCC4)CC3)c(-c3nc(C)no3)cc2c1` [compound 219], the IC50 came to 3.5 nM. The value for `COC1CN(c2ncc(C)cc2-c2nc(C)no2)CCC1NC1CCCCC1` (centres unmarked) [compound 179] was 253 nM. As for `Cc1noc(-c2cc3cc(Cl)ccc3nc2N2CC[C@@H](NC3CCCCC3)[C@H](O)C2)n1` [compound 238], the IC50 turned out to be 38 nM. The value for `Cc1noc(-c2cc3ccc(F)cc3nc2N2CCC(NC3CCCCC3)CC2)n1` [compound 515] was 7 nM; that for `c1cnc(-c2cc3ccccc3nc2N2CCC(NC3CCOCC3)CC2)nc1` [compound 286] was 298 nM; that for `COC1CN(c2nc3ccc(C)cc3cc2-c2nc(C3CC3)no2)CCC1NC1CCCCC1` (centres unmarked) [compound 303] was 0.5 nM.

In the case of `COC1CN(c2nc3ccccc3cc2-c2ncco2)CCC1NC1CCCCC1` (centres unmarked) [compound 225], the IC50 came to 70 nM.

In the case of `COC(=O)c1cc(NC(=O)NC(C)C)cnc1N1CCC(NC2CCCCC2)CC1` [C35], the IC50 is 17000 nM. The value for `COC(=O)c1cc(Br)cnc1N1CCC(NC2CCCC(C)C2C)CC1` (centres unmarked) [compound 23] was 854 nM.

On to `COC(=O)c1cc(I)cnc1N1CCC(NC2CCCCC2OC)C(CO)C1` (centres unmarked) [compound 91], for which the IC50 was 198 nM. The value for `Cc1noc(-c2cc(C)c(C)nc2N2CCC(NC3CCCC3)C(CO)C2)n1` (centres unmarked) [compound 223] was 13 nM; that for `COC(=O)c1cc(Br)cnc1N1CCC(NC2CCCC2)C(O)C1` (centres unmarked) [compound 44] was 79 nM. The value for `Cc1nc(-c2cc3ccc(F)c(C)c3nc2N2CCC(NC3CCCCC3)CC2)no1` [compound 503] was 74 nM; that for `Cc1ccc2nc(N3CCC(NC4CCOC4)CC3)c(-c3nc(C)no3)cc2c1` (centres unmarked) [compound 254] was 8 nM. In the case of `CCOC(=O)c1cc(Cl)cnc1N1CCC(NC2CCCCC2)C(CO)C1` (centres unmarked) [compound 71], the IC50 is 93 nM. In the case of `CCc1noc(-c2cc3cc(C)ccc3nc2N2CCC(NC3CCCC3)C(OC)C2)n1` (centres unmarked) [compound 310] it was 4 nM; in that of `CCc1cnc(N2CCC(NC3CCCCC3)C(O)C2)c(C(=O)OC)c1` (centres unmarked) [compound 133], 272 nM. In the case of `COC1CN(c2nc3ccc(C)cc3cc2-c2nc(C)no2)CCC1NC1CCOCC1` (centres unmarked) [compound 326] it was 1.9 nM; in that of `COC(=O)c1cc(Br)cnc1N1CCC(NC2CCCCCC2)C(C(=O)OC)C1` (centres unmarked) [compound 115], 1700 nM. `COC(=O)c1cc(C2CC2)cnc1N1CCC(NC2CCCCC2)C(O)C1` (centres unmarked) [C66]: the IC50 amounted to 17000 nM. On to `CCN(CC)C(=O)c1cc(Br)cnc1N1CC[C@@H](NC2CCCCC2)[C@H](O)C1` [compound 139], for which the IC50 was found to be 4800 nM. In the case of `Cc1ccc2nc(N3CCC(Nc4ncccn4)CC3)c(-c3nc(C)no3)cc2c1` [C83] it was 47000 nM. The value for `COC(=O)c1cc(Br)cnc1N1CCC(N[C@H](C)C2CCCCC2)CC1` [compound 17] was 6800 nM.
